Format in all cases: cell-based
The subject of assay [1] is NLRP3-dependent release of IL-1β. In words: LPS/ATP-induced IL-1β release from differentiated THP1 cells overexpressing human THIK-1. The following applies: 1 μM, THIK-1 overexpressing THP1 cells. On the procedure: (§1) THP1 cells, obtained from ATCC, are monocytes isolated from peripheral blood of a leukaemia patient. THP1 cells were grown in RPMI 1640 supplemented with 10% fetal bovine serum (FBS, Hyclone), 1% PenStrep (Invitrogen), and 1% GlutaMax (Invitrogen), and 0.05 mM of 2-mercaptoethanol. To overexpress human THIK-1, THP1 cells were differentiated with 100 ng/ml PMA for 24 h prior to transfection with THIK-1 mRNA synthesized as described in the supplementary material. Cell suspensions (2.5 × 10^6 cells in […]) in the presence of 200 μg/ml mRNA were electroporated with the MaxCyte (STX instrument) in an OC-25 MaxCyte Electroporation cassette using manufacturer settings for THP1 cells. Cell suspensions were transferred to a 6-well plate and allowed to recover for 20 min at 37 °C. Cells were seeded into 384-well plates (10,000 cells/well) for thallium flux assays or 96-well plates (50,000 cells/well) for inflammasome assays the following day. Overexpressing and mock-transfected cells were primed with 100 ng/ml of LPS for 3.5 h prior to addition of compounds 30 min before stimulation with 5 mM ATP. Supernatants were collected 2 h after addition of ATP and stored at −20 °C until the detection of IL-1β.
IL-1β from culture supernatants was measured with DuoSet ELISA kit (R&D Systems) following the manufacturer instructions.

In assay [2] the target is T1, THIK-1 (Homo sapiens, UniProt Q9HB14).
T1 construct: expressed in transfected cells
T1 sequence (Q9HB14 1-408): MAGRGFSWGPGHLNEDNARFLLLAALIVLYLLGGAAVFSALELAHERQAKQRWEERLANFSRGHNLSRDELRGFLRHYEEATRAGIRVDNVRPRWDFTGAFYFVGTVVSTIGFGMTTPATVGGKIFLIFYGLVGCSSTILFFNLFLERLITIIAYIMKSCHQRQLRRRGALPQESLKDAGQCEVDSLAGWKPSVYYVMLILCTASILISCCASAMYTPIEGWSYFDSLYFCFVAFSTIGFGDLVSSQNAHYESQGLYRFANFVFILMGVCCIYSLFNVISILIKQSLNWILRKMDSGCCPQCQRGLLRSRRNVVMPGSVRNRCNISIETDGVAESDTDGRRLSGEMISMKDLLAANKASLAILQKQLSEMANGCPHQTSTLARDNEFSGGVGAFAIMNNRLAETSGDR
In words: FLIPR thallium influx assay, HEK-hTHIK-1 cells. The following applies: HEK-hTHIK-1, normalised to TPA controls; read-out: IC50, inhibition of THIK-1 constitutive activity (thallium influx). The method, then:
HEK-293 cells were transfected with human THIK-1, TREK-1, TWIK-2, or mouse THIK-1 cDNA cloned into pcDNA3.1, using either Fugene HD transfection reagent (Promega) or electroporation (MaxCyte STX instrument). Cells stably expressing the relevant genes were selected based on resistance to 500 μg/ml geneticin (Gibco). For human THIK-1 and TWIK-2 expressing cells, monoclonal lines were isolated by limited dilution cloning; mouse THIK-1 and human TREK-1 expressing cells were maintained as polyclonal pools. The HEK-293 pools and monoclones stably expressing the relevant genes were maintained in DMEM (Life Technologies), supplemented with 10% FCIII (HyClone, Fetal clone III) and 500 μg/ml geneticin. A CHO-Kv2.1 cell line was purchased from Millipore (accession NM_004975) and maintained in F12 (Life Technologies), supplemented with 10% FCSIII (Thermo Scientific) and 500 μg/ml geneticin (Life Technologies). For thallium flux assays, banks of frozen cell aliquots were prepared the day prior to assay, cells were thawed into media and seeded into PDL coated 384-well plates (Corning) at 25,000 (human/mouse THIK-1, TREK-1) or 30,000 (TWIK-2) cells/well (25 μl/well). CHO-Kv2.1 cells were seeded into non-PDL coated plates (Corning) at 5000 cells/well. Plated cells were incubated overnight at 37 °C, 5% CO2 in a humidified atmosphere. For Q-Patch assays, cells were cultured for 7 days prior to assay, dissociated, and diluted to 1–2.5 million/ml in EX-CELL ACF serum free media containing HEPES (25 mM; Life Technologies), penicillin/streptomycin (100 U/ml, 100 μg/ml; Life Technologies) and a trypsin inhibitor (0.04 mg/ml).
A fluorescence-based thallium influx assay (Molecular Devices potassium assay kit) was used to monitor channel activity. In brief, component A was reconstituted in 17 ml of chloride-free assay buffer (130 mM sodium D-gluconate, 5 mM potassium D-gluconate, 2 mM calcium D-gluconate, 1 mM magnesium D-gluconate, 5 mM NaHCO3, 20 mM HEPES; pH adjusted to 7.4 with NaOH and filtered (0.45 μm filter)) and component C reconstituted in 30 μl of DMSO. Components A and C were combined, and probenecid was added (Life Technologies; final assay concentration (FAC) 4.75 mM for HEK cell lines and 2.47 mM for CHO-Kv2.1) to provide the final dye solution. Media was removed from the cell plates and replaced with dye (20 μl/well) and the plates were incubated at room temperature in the dark for 60 min. On the day of the assay, a diluted compound plate (3x FAC in 1.5% DMSO) was created. Control wells contained either DMSO vehicle (1.5%, 3x FAC) or tetrapentylammonium chloride (TPA; Sigma, 258962; 1.5 mM in 1.5% DMSO, 3x FAC). A 3x thallium stimulation plate was also prepared, to provide a FAC of either 1 mM (human THIK-1) or 3 mM (mouse THIK-1, TREK-1, TWIK-2) thallium sulphate (in assay buffer). For Kv2.1, the FAC of thallium sulphate was 2.6 mM and this was prepared in assay buffer containing potassium sulphate (Sigma P9458; FAC 23.3 mM). Following 60 min of dye loading, 10 μl from the 3x FAC compound plate was added into the cell plate, which was then incubated for 15 min at room temperature in the dark. Using a fluorescent imaging plate reader (FLIPR) tetra plate reader, 15 μl thallium stimulus solution was added to the cell plate and the fluorescence signal recorded every second for 1 min (excitation: 470–495 nm, emission: 515–575 nm).

Assay [3] has as its target T1, THIK-1. The assay is described as follows: Thallium influx in human THIK-1 overexpressing differentiated THP1 cells. Conditions: THIK-1 mRNA-transfected differentiated THP1 cells; read-out: IC50, block of thallium influx. The method, then: as §1, with “Overexpressing and mock-transfected cells were primed with 100 ng/ml of LPS for 3.5 h prior to addition of compounds 30 min before stimulation with 5 mM ATP. Supernatants were collected 2 h after addition of ATP and stored at −20 °C until the detection of IL-1β.” left out
A fluorescence-based thallium influx assay (Molecular Devices potassium assay kit) was used to monitor channel activity. […] Using a fluorescent imaging plate reader (FLIPR) tetra plate reader, 15 μl thallium stimulus solution was added to the cell plate and the fluorescence signal recorded every second for 1 min (excitation: 470–495 nm, emission: 515–575 nm).

Turning to `CC(C)(O)c1coc(S(=O)(=O)NC(=O)Nc2c3c(cc4c2CCC4)CCC3)c1` [MCC950, reference compound], the “effect on ATP-stimulated IL-1β release” value in assay [1] is recorded as “completely blocked”. One may read the IC50 as the midpoint of a concentration-inhibition curve. Regarding `CCCCC[N+](CCCCC)(CCCCC)CCCCC` [TPA, tetrapentylammonium chloride, reference compound], the IC50 is 4.7 µM in assay [2] and 6.8 µM in assay [3].
